In patent US8163771B2, “11 β-HSD1 modulators” (Exelixis, Inc., priority 2008, dated 2012):
pIC50: −log10 of the molar value.

Molecular target: T1, recombinant human 11 β-HSD1 (Homo sapiens, UniProt P28845)
T1 construct: made in house; host or cells: E. coli
Assay: 11 β-HSD1 SPA Assay (Scintillation Proximity Assay)
Format: biochemical
Summary of the method: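 E. coli-expressed human enzyme (30-100 nM) with tritiated cortisone 40 nM and NADPH 1 mM in HEPES buffer pH7.4, 2 hours at room temperature. Stopped with protein A SPA beads carrying anti-cortisol antibody and glycyrrhetinic acid; counted after overnight incubation. IC50 from percent inhibition between no-enzyme and no-compound signals.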

T1 sequence (P28845 whole entry): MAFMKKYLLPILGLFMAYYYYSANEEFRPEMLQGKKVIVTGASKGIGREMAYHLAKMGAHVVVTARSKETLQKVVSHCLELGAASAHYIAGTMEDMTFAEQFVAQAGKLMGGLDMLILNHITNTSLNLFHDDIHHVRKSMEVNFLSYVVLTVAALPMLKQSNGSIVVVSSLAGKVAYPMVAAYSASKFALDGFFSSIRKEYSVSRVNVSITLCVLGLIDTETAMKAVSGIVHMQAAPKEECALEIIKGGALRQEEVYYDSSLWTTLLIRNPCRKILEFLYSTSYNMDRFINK

| SMILES | pIC50 |
| --- | --- |
| COCCNC(=O)c1ccc(N2[C@@H]3CC[C@H]2C[C@@H](NC(=O)C(C)(C)Oc2ccc(Cl)cc2Cl)C3)nc1 [Example 80, 6-[3-endo-({2-[(2,4-dichlorophenyl)oxy]-2-methylpropanoyl}amino)-8-azabicyclo[3.2.1]oct-8-yl]-N-[2-(methyloxy)ethyl]pyridine-3-carboxamide] | > 6.70 |
| CCC(Oc1ccc(Cl)cc1)C(=O)N[C@H]1C[C@H]2CC[C@@H](C1)N2c1ccc(C(=O)NCCOC)cn1 (stereo partly drawn) [Example 81, 6-[3-endo-({2-[(4-chlorophenyl)oxy]butanoyl}amino)-8-azabicyclo[3.2.1]oct-8-yl]-N-[2-(methyloxy)ethyl]pyridine-3-carboxamide] | > 5.70 |
| CC(Oc1ccc(Cl)cc1Cl)C(=O)N[C@H]1C[C@H]2CC[C@@H](C1)N2c1ccc(C(=O)NC2CC2)cn1 (stereo partly drawn) [Example 82, N-cyclopropyl-6-[3-endo-({2-[(2,4-dichlorophenyl)oxy]propanoyl}amino)-8-azabicyclo[3.2.1]oct-8-yl]pyridine-3-carboxamide] | > 6.70 |
| CC(C)(Oc1ccc(Cl)c(Cl)c1)C(=O)N[C@H]1C[C@H]2CC[C@@H](C1)N2c1ccc(C(=O)NCC(F)(F)F)cn1 [Example 83, 6-[3-endo-({2-[(3,4-dichlorophenyl)oxy]-2-methylpropanoyl}amino)-8-azabicyclo[3.2.1]oct-8-yl]-N-(2,2,2-trifluoroethyl)pyridine-3-carboxamide] | > 6.70 |
| CC(C)NC(=O)c1ccc(N2[C@@H]3CC[C@H]2C[C@@H](NC(=O)C(C)(C)Oc2ccc(Cl)c(F)c2)C3)nc1 [Example 84, 6-[3-endo-({2-[(4-chloro-3-fluorophenyl)oxy]-2-methylpropanoyl}amino)-8-azabicyclo[3.2.1]oct-8-yl]-N-(1-methylethyl)pyridine-3-carboxamide] | > 6.70 |
| CC(C)NC(=O)c1ccc(N2[C@@H]3CC[C@H]2C[C@@H](NC(=O)C(C)(C)Oc2ccc(F)c(F)c2)C3)nc1 [Example 85, 6-[3-endo-({2-[(3,4-difluorophenyl)oxy]-2-methylpropanoyl}amino)-8-azabicyclo[3.2.1]oct-8-yl]-N-(1-methylethyl)pyridine-3-carboxamide] | > 5.70 |
| CC(C)(Oc1ccc(Cl)cc1Cl)C(=O)N[C@H]1C[C@H]2CC[C@@H](C1)N2c1ncc(C(=O)NC2CC2)cc1Cl [Example 86, 5-chloro-N-cyclopropyl-6-[3-endo-({2-[(2,4-dichlorophenyl)oxy]-2-methylpropanoyl}amino)-8-azabicyclo[3.2.1]oct-8-yl]pyridine-3-carboxamide] | > 6.70 |
| CC(=O)c1ccc(N2[C@@H]3CC[C@H]2C[C@@H](NC(=O)C(C)(C)Oc2ccc(Cl)cc2Cl)C3)nc1 [Example 87, N-[8-(5-acetylpyridin-2-yl)-8-azabicyclo[3.2.1]oct-3-endo-yl]-2-[(2,4-dichlorophenyl)oxy]-2-methylpropanamide] | > 6.70 |
| CC(C)(Oc1ccc(Cl)cc1Cl)C(=O)N[C@H]1C[C@H]2CC[C@@H](C1)N2c1ccc(N)cn1 [Example 88, N-[8-(5-aminopyridin-2-yl)-8-azabicyclo[3.2.1]oct-3-endo-yl]-2-[(2,4-dichlorophenyl)oxy]-2-methylpropanamide] | > 6.70 |
| COCCNC(=O)c1ccc(N2[C@@H]3CC[C@H]2C[C@@H](NC(=O)C(C)(C)Oc2ccc(Cl)cc2)C3)nc1 [Example 89, 6-[3-endo-({2-[(4-chlorophenyl)oxy]-2-methylpropanoyl}amino)-8-azabicyclo[3.2.1]oct-8-yl]-N-[2-(methyloxy)ethyl]pyridine-3-carboxamide] | > 6.70 |
| CC(C)(Oc1cc(F)c(Cl)cc1Cl)C(=O)N[C@H]1C[C@H]2CC[C@@H](C1)N2c1ccc(C(=O)NCC(F)(F)F)cn1 [Example 90, 6-[3-endo-({2-[(2,4-dichloro-5-fluorophenyl)oxy]-2-methylpropanoyl}amino)-8-azabicyclo[3.2.1]oct-8-yl]-N-(2,2,2-trifluoroethyl)pyridine-3-carboxamide] | > 6.70 |
| CC(C)(Oc1cc(F)c(Cl)cc1Cl)C(=O)N[C@H]1C[C@H]2CC[C@@H](C1)N2c1ccc(C(=O)NC2CC2)cn1 [Example 91, N-cyclopropyl-6-[3-endo-({2-[(2,4-dichloro-5-fluorophenyl)oxy]-2-methylpropanoyl}amino)-8-azabicyclo[3.2.1]oct-8-yl]pyridine-3-carboxamide] | > 6.70 |
| CC(C)(Oc1ccc(Cl)cc1Cl)C(=O)N[C@H]1C[C@H]2CC[C@@H](C1)N2c1ccc(NC(=O)C2CC2)cn1 [Example 92, N-{6-[3-endo-({2-[(2,4-dichlorophenyl)oxy]-2-methylpropanoyl}amino)-8-azabicyclo[3.2.1]oct-8-yl]pyridin-3-yl}cyclopropanecarboxamide] | > 6.70 |
| CC(C)(Oc1ccc(F)c(Cl)c1)C(=O)N[C@H]1C[C@H]2CC[C@@H](C1)N2c1ccc(C(=O)NCC(F)(F)F)cn1 [Example 93, 6-[3-endo-({2-[(3-chloro-4-fluorophenyl)oxy]-2-methylpropanoyl}amino)-8-azabicyclo[3.2.1]oct-8-yl]-N-(2,2,2-trifluoroethyl)pyridine-3-carboxamide] | > 6.70 |
| CC(=O)Nc1ccc(N2[C@@H]3CC[C@H]2C[C@@H](NC(=O)C(C)(C)Oc2ccc(Cl)cc2Cl)C3)nc1 [Example 94, N-{8-[5-(acetylamino)pyridin-2-yl]-8-azabicyclo[3.2.1]oct-3-endo-yl}-2-[(2,4-dichlorophenyl)oxy]-2-methylpropanamide] | > 6.70 |
| CC(C)NC(=O)c1ccc(N2[C@@H]3CC[C@H]2C[C@@H](NC(=O)C(C)(C)Oc2ccc(F)c(Cl)c2)C3)nc1 [Example 95, 6-[3-endo-({2-[(3-chloro-4-fluorophenyl)oxy]-2-methylpropanoyl}amino)-8-azabicyclo[3.2.1]oct-8-yl]-N-(1-methylethyl)pyridine-3-carboxamide] | > 6.70 |
| CC(C)(Oc1cc(F)c(F)cc1Cl)C(=O)N[C@H]1C[C@H]2CC[C@@H](C1)N2c1ccc(C(N)=O)cn1 [Example 96, 6-[3-endo-({2-[(2-chloro-4,5-difluorophenyl)oxy]-2-methylpropanoyl}amino)-8-azabicyclo[3.2.1]oct-8-yl]pyridine-3-carboxamide] | > 6.70 |
| CC(C)(Oc1ccc(F)c(Cl)c1Cl)C(=O)N[C@H]1C[C@H]2CC[C@@H](C1)N2c1ccc(C(N)=O)cn1 [Example 97, 6-[3-endo-({2-[(2,3-dichloro-4-fluorophenyl)oxy]-2-methylpropanoyl}amino)-8-azabicyclo[3.2.1]oct-8-yl]pyridine-3-carboxamide] | > 6.70 |
| CC(C)(Oc1cc(Cl)c(F)cc1Cl)C(=O)N[C@H]1C[C@H]2CC[C@@H](C1)N2c1ccc(C(=O)NCC(F)(F)F)cn1 [Example 98, 6-[3-endo-({2-[(2,5-dichloro-4-fluorophenyl)oxy]-2-methylpropanoyl}amino)-8-azabicyclo[3.2.1]oct-8-yl]-N-(2,2,2-trifluoroethyl)pyridine-3-carboxamide] | > 6.70 |
| CC(C)(Oc1cc(Cl)c(F)cc1Cl)C(=O)N[C@H]1C[C@H]2CC[C@@H](C1)N2c1ccc(C(N)=O)cn1 [Example 99, 6-[3-endo-({2-[(2,5-dichloro-4-fluorophenyl)oxy]-2-methylpropanoyl}amino)-8-azabicyclo[3.2.1]oct-8-yl]pyridine-3-carboxamide] | > 6.70 |
| CC(C)(Oc1ccc(F)c(Cl)c1Cl)C(=O)N[C@H]1C[C@H]2CC[C@@H](C1)N2c1ccc(C(=O)NCC(F)(F)F)cn1 [Example 100, 6-[3-endo-({2-[(2,3-dichloro-4-fluorophenyl)oxy]-2-methylpropanoyl}amino)-8-azabicyclo[3.2.1]oct-8-yl]-N-(2,2,2-trifluoroethyl)pyridine-3-carboxamide] | > 6.70 |
| CC(C)(Oc1ccc(Cl)cc1Cl)C(=O)N[C@H]1C[C@H]2CC[C@@H](C1)N2c1ccc(NS(C)(=O)=O)cn1 [Example 101, 2-[(2,4-dichlorophenyl)oxy]-2-methyl-N-(8-{5-[(methylsulfonyl)amino]pyridin-2-yl}-8-azabicyclo[3.2.1]oct-3-endo-yl)propanamide] | > 6.70 |
| NC(=O)c1ccc(N2[C@@H]3CC[C@H]2C[C@@H](NC(=O)C2(c4cccc(Cl)c4)CC2)C3)nc1 [Example 102, 6-[3-endo-({[1-(3-chlorophenyl)cyclopropyl]carbonyl}amino)-8-azabicyclo[3.2.1]oct-8-yl]pyridine-3-carboxamide] | > 6.70 |
| NC(=O)c1ccc(N2[C@@H]3CC[C@H]2C[C@@H](NC(=O)C2(c4ccc(Cl)c(Cl)c4)CC2)C3)nc1 [Example 103, 6-[3-endo-({[1-(3,4-dichiorophenyl)cyclopropyl]carbonyl}amino)-8-azabicyclo[3.2.1]oct-8-yl]pyridine-3-carboxamide] | > 6.70 |
| NC(=O)c1ccc(N2[C@@H]3CC[C@H]2C[C@@H](NC(=O)C2(c4cccc(F)c4)CC2)C3)nc1 [Example 104, 6-[3-endo-({[1-(3-fluorophenyl)cyclopropyl]carbonyl}amino)-8-azabicyclo[3.2.1]oct-8-yl]pyridine-3-carboxamide] | > 6.70 |
| CC(C)(Oc1ccc(Cl)cc1F)C(=O)N[C@H]1C[C@H]2CC[C@@H](C1)N2c1ccc(C(=O)NCC(F)(F)F)cn1 [Example 105, 6-[3-endo-({2-[(4-chloro-2-fluorophenyl)oxy]-2-methylpropanoyl}amino)-8-azabicyclo[3.2.1]oct-8-yl]-N-(2,2,2-trifluoroethyl)pyridine-3-carboxamide] | > 6.70 |
| CC(C)(Oc1ccc(Cl)cc1Cl)C(=O)N[C@H]1C[C@H]2CC[C@@H](C1)N2c1cccnc1 [Example 106, 2-[(2,4-dichlorophenyl)oxy]-2-methyl-N-(8-pyridin-3-yl-8-azabicyclo[3.2.1]oct-3-endo-yl)propanamide] | > 6.70 |
| CC(C)(Oc1ncc(Cl)cc1Cl)C(=O)N[C@H]1C[C@H]2CC[C@@H](C1)N2c1ccc(C(=O)NCC(F)(F)F)cn1 [Example 107, 6-[3-endo-({2-[(3,5-dichloropyridin-2-yl)oxy]-2-methylpropanoyl}amino)-8-azabicyclo[3.2.1]oct-8-yl]-N-(2,2,2-trifluoroethyl)pyridine-3-carboxamide] | > 6.70 |
